Reference: patent US8802700B2 (Vertex Pharmaceuticals Incorporated, priority 2010, dated 2014)

biological target: T1, ΔF508-CFTR (Homo sapiens, UniProt P13569, DEL508-508); assay: Membrane potential optical assay (FRET voltage-sensor dyes, VIPR), identification of potentiator compounds; type: cell-based; details: Table 3; assay not given
T1 construct: expressed in transfected cells
Outline: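 Potentiator screen measured membrane potential via FRET between CC2-DMPE donor and DiSBAC2(3), read on VIPR II. Compound went in with the first addition of chloride-free gluconate bath; cells were ΔF508-CFTR-expressing NIH3T3 mouse fibroblasts, temperature-corrected at 27 °C for 24 h.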

T1 sequence (P13569 with tags, fused parts or gaps DEL508-508): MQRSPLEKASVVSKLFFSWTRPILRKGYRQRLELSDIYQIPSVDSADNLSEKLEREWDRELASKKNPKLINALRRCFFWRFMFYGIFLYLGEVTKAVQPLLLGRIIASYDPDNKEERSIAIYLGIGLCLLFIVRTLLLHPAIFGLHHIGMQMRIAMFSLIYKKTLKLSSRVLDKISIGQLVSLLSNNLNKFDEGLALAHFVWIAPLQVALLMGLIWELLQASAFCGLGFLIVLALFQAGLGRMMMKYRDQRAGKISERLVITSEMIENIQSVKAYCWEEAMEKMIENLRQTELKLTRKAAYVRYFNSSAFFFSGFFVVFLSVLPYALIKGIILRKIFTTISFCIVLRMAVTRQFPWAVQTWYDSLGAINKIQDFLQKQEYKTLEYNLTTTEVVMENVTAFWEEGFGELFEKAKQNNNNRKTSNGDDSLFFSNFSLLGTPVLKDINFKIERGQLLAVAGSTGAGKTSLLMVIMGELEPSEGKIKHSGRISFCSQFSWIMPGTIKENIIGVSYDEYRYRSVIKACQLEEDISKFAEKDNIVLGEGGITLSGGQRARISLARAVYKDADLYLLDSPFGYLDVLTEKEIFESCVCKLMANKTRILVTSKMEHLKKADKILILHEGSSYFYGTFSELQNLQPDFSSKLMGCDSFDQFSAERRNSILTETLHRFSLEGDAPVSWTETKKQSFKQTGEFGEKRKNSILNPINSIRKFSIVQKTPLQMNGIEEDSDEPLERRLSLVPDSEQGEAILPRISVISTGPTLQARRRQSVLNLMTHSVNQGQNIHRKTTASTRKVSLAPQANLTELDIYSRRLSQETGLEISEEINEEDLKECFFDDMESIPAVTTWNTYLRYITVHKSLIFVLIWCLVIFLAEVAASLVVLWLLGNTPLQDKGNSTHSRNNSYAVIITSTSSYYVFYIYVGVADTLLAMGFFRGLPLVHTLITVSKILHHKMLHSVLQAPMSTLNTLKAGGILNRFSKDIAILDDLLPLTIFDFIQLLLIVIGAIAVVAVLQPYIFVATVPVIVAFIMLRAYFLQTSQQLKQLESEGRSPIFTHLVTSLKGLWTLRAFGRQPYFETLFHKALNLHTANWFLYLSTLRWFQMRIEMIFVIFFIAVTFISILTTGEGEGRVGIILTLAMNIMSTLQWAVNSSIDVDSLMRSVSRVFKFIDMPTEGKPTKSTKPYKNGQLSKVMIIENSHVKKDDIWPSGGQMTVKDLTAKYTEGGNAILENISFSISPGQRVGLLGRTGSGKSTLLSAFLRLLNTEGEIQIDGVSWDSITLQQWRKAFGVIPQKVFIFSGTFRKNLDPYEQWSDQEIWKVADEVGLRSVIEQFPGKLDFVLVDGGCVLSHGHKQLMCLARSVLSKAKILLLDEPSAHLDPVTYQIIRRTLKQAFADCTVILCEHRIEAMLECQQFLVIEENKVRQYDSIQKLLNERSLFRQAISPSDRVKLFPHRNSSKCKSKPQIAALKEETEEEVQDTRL

Row | Compound | EC50 [µM]
1 | N#CCc1ccc(-c2ccccc2NC(=O)c2c[nH]c3ccccc3c2=O)cc1 [Compound 333, N-[2-[4-(cyanomethyl)phenyl]phenyl]-4-oxo-1H-quinoline-3-carboxamide] | < 10
2 | CCOc1ccccc1-c1ccccc1NC(=O)c1c[nH]c2ccccc2c1=O [Compound 344, N-[2-(2-ethoxyphenyl)phenyl]-4-oxo-1H-quinoline-3-carboxamide] | < 10
3 | COc1ccc(OC)c(-c2ccccc2NC(=O)c2c[nH]c3ccccc3c2=O)c1 [Compound 361, N-[2-(2,5-dimethoxyphenyl)phenyl]-4-oxo-1H-quinoline-3-carboxamide] | < 10

same assay, conditions: Table 3; assay not given; read-out: % Activity (% Efficacy, relative efficacy)

Row | Compound | Emax [%]
4 | CCOc1ccccc1-c1cc2cc[nH]c2cc1NC(=O)c1c[nH]c2ccccc2c1=O [Compound 327, N-[5-(2-ethoxyphenyl)-1H-indol-6-yl]-4-oxo-1H-quinoline-3-carboxamide] | 25 to 100
5 | CC(=O)c1cccc(NC(=O)c2c[nH]c3ccccc3c2=O)c1 [Compound 328, N-(3-acetylphenyl)-4-oxo-1H-quinoline-3-carboxamide] | < 25
6 | Cc1ccccc1-c1nc2cc(NC(=O)c3c[nH]c4ccccc4c3=O)ccc2o1 [Compound 329, N-[2-(o-tolyl)benzooxazol-5-yl]-4-oxo-1H-quinoline-3-carboxamide] | 25 to 100
7 | O=C(Nc1ccccc1Cl)c1c[nH]c2ccccc2c1=O [Compound 330, N-(2-chlorophenyl)-4-oxo-1H-quinoline-3-carboxamide] | 25 to 100
8 | NC(=O)c1ccccc1NC(=O)c1c[nH]c2ccccc2c1=O [Compound 331, N-(2-carbamoylphenyl)-4-oxo-1H-quinoline-3-carboxamide] | < 25
9 | C#Cc1ccc(NC(=O)c2c[nH]c3ccccc3c2=O)cc1 [Compound 332, N-(4-ethynylphenyl)-4-oxo-1H-quinoline-3-carboxamide] | 25 to 100
10 | N#CCc1ccc(-c2ccccc2NC(=O)c2c[nH]c3ccccc3c2=O)cc1 [Compound 333, N-[2-[4-(cyanomethyl)phenyl]phenyl]-4-oxo-1H-quinoline-3-carboxamide] | 25 to 100
11 | CC(=O)N1CCC2(CCN(C(=O)OC(C)(C)C)CC2)c2ccc(NC(=O)c3c[nH]c4ccccc4c3=O)cc21 [Compound 334, 7′-[(4-oxo-1H-quinolin-3-ylcarbonyl)amino]-spiro[piperidine-4,4′(1′H)-1-acetyl-quinoline], 2′,3′-dihydro-carboxylic acid tert-butyl ester] | 25 to 100
12 | Cc1ccc(C(N)=O)c(NC(=O)c2c[nH]c3ccccc3c2=O)c1 [Compound 335, N-(2-carbamoyl-5-methyl-phenyl)-4-oxo-1H-quinoline-3-carboxamide] | < 25
13 | CCCCc1ccccc1NC(=O)c1c[nH]c2ccccc2c1=O [Compound 336, N-(2-butylphenyl)-4-oxo-1H-quinoline-3-carboxamide] | 25 to 100
14 | CN(C(=O)c1c[nH]c2ccccc2c1=O)c1cc(O)c(C(C)(C)C)cc1C(C)(C)C [Compound 337, N-(5-hydroxy-2,4-ditert-butyl-phenyl)-N-methyl-4-oxo-1H-quinoline-3-carboxamide] | 25 to 100
15 | Cc1c[nH]c2cccc(NC(=O)c3c[nH]c4ccccc4c3=O)c12 [Compound 338, N-(3-methyl-1H-indol-4-yl)-4-oxo-1H-quinoline-3-carboxamide] | 25 to 100
16 | N#Cc1c[nH]c2cc(NC(=O)c3c[nH]c4ccccc4c3=O)ccc12 [Compound 339, N-(3-cyano-1H-indol-6-yl)-4-oxo-1H-quinoline-3-carboxamide] | 25 to 100
17 | CCCc1ccc(NC(=O)c2c[nH]c3ccccc3c2=O)cc1NS(C)(=O)=O [Compound 340, N-(3-methylsulfonylamino-4-propyl-phenyl)-4-oxo-1H-quinoline-3-carboxamide] | 25 to 100
18 | CC(C)(C)COC(=O)NCC(C)(C)c1ccc(NC(=O)c2c[nH]c3ccccc3c2=O)cc1 [Compound 341, [2-methyl-2-[4-[(4-oxo-1H-quinolin-3-yl)carbonylamino]phenyl]-propyl]aminoformic acid neopentyl ester] | 25 to 100
19 | CC(C)c1ccc(-c2cc3cc[nH]c3cc2NC(=O)c2c[nH]c3ccccc3c2=O)cc1 [Compound 342, N-[5-(4-isopropylphenyl)-1H-indol-6-yl]-4-oxo-1H-quinoline-3-carboxamide] | 25 to 100
20 | CC(C)CNC(=O)c1cc2cc[nH]c2cc1NC(=O)c1c[nH]c2ccccc2c1=O [Compound 343, N-[5-(Isobutylcarbamoyl)-1H-indol-6-yl]-4-oxo-1H-quinoline-3-carboxamide] | 25 to 100
21 | CCOc1ccccc1-c1ccccc1NC(=O)c1c[nH]c2ccccc2c1=O [Compound 344, N-[2-(2-ethoxyphenyl)phenyl]-4-oxo-1H-quinoline-3-carboxamide] | 25 to 100
22 | O=C(Nc1ccc2cc[nH]c2c1)c1cnc2ccc(F)cc2c1O [Compound 345, 6-fluoro-4-hydroxy-N-(1H-indol-6-yl)quinoline-3-carboxamide] | 25 to 100
23 | O=C(Nc1ccccc1)c1c[nH]c2cc(C(F)(F)F)ccc2c1=O [Compound 346, 4-oxo-N-phenyl-7-(trifluoromethyl)-1H-quinoline-3-carboxamide] | 25 to 100
24 | CN(C)CCNC(=O)c1ccc(-c2cc3cc[nH]c3cc2NC(=O)c2c[nH]c3ccccc3c2=O)cc1 [Compound 347, N-[5-[4-(2-dimethylaminoethylcarbamoyl)phenyl]-1H-indol-6-yl]-4-oxo-1H-quinoline-3-carboxamide] | 25 to 100
25 | CCOc1ccc(-c2ccccc2NC(=O)c2c[nH]c3ccccc3c2=O)cc1 [Compound 348, N-[2-(4-ethoxyphenyl)phenyl]-4-oxo-1H-quinoline-3-carboxamide] | 25 to 100

Row | Compound | Emax [%]
26 | O=C(Nc1cccc2ccccc12)c1c[nH]c2ccccc2c1=O [Compound 350, N-(1-naphthyl)-4-oxo-1H-quinoline-3-carboxamide] | 25 to 100
27 | CCc1cc2cc[nH]c2cc1NC(=O)c1c[nH]c2ccccc2c1=O [Compound 351, N-(5-ethyl-1H-indol-6-yl)-4-oxo-1H-quinoline-3-carboxamide] | 25 to 100
28 | CC(C)(C)OC(=O)NCCc1c[nH]c2cc(NC(=O)c3c[nH]c4ccccc4c3=O)ccc12 [Compound 352, 2-[6-[(4-oxo-1H-quinolin-3-yl)carbonylamino]-1H-indol-3-yl]ethylaminoformic acid tert-butyl ester] | 25 to 100
29 | CC(C)(C)OC(=O)Nc1ccc(C(C)(C)C)c(NC(=O)c2c[nH]c3ccccc3c2=O)c1 [Compound 353, [3-[(4-oxo-1H-quinolin-3-yl)carbonylamino]-4-tert-butyl-phenyl]aminoformic acid tert-butyl ester] | 25 to 100
30 | CN(Cc1ccccc1NC(=O)c1c[nH]c2ccccc2c1=O)C1CCCCC1 [Compound 354, N-[2-[(cyclohexyl-methyl-amino)methyl]phenyl]-4-oxo-1H-quinoline-3-carboxamide] | 25 to 100
31 | COc1ccccc1-c1ccccc1NC(=O)c1c[nH]c2ccccc2c1=O [Compound 355, N-[2-(2-methoxyphenyl)phenyl]-4-oxo-1H-quinoline-3-carboxamide] | 25 to 100
32 | CCCc1ccc(NC)cc1NC(=O)c1c[nH]c2ccccc2c1=O [Compound 356, N-(5-methylamino-2-propyl-phenyl)-4-oxo-1H-quinoline-3-carboxamide] | 25 to 100
33 | CC(C)c1c[nH]c2cc(NC(=O)c3c[nH]c4ccccc4c3=O)ccc12 [Compound 357, N-(3-isopropyl-1H-indol-6-yl)-4-oxo-1H-quinoline-3-carboxamide] | 25 to 100
34 | O=C(Nc1ccc2cc[nH]c2c1)c1cnc2ccc(Cl)cc2c1O [Compound 358, 6-chloro-4-hydroxy-N-(1H-indol-6-yl)quinoline-3-carboxamide] | 25 to 100
35 | CN(C)CCS(=O)(=O)Nc1cc(NC(=O)c2c[nH]c3ccccc3c2=O)cc(C(F)(F)F)c1 [Compound 359, N-[3-(2-dimethylaminoethylsulfonylamino)-5-(trifluoromethyl)phenyl]-4-oxo-1H-quinoline-3-carboxamide] | 25 to 100
36 | O=C(Nc1ccc(OC(F)F)cc1)c1c[nH]c2ccccc2c1=O [Compound 360, N-[4-(difluoromethoxy)phenyl]-4-oxo-1H-quinoline-3-carboxamide] | 25 to 100
37 | COc1ccc(OC)c(-c2ccccc2NC(=O)c2c[nH]c3ccccc3c2=O)c1 [Compound 361, N-[2-(2,5-dimethoxyphenyl)phenyl]-4-oxo-1H-quinoline-3-carboxamide] | > 100
38 | CC(C)(C)c1ccc(NC(=O)c2c[nH]c3ccccc3c2=O)c(Cl)c1 [Compound 362, N-(2-chloro-4-tert-butyl-phenyl)-4-oxo-1H-quinoline-3-carboxamide] | 25 to 100
39 | COc1cccc(-c2ccccc2NC(=O)c2c[nH]c3ccccc3c2=O)c1F [Compound 363, N-[2-(2-fluoro-3-methoxy-phenyl)phenyl]-4-oxo-1H-quinoline-3-carboxamide] | > 100
40 | Cc1ccc2cccc(NC(=O)c3c[nH]c4ccccc4c3=O)c2n1 [Compound 364, N-(2-methyl-8-quinolyl)-4-oxo-1H-quinoline-3-carboxamide] | 25 to 100
41 | CC(=O)c1ccccc1NC(=O)c1c[nH]c2ccccc2c1=O [Compound 365, N-(2-acetylphenyl)-4-oxo-1H-quinoline-3-carboxamide] | 25 to 100
42 | O=C(Nc1ccccc1-c1ccc(C(F)(F)F)cc1)c1c[nH]c2ccccc2c1=O [Compound 366, 4-oxo-N-[2-[4-(trifluoromethyl)phenyl]phenyl]-1H-quinoline-3-carboxamide] | 25 to 100
43 | O=C(Nc1ccccc1-c1cc(Cl)cc(Cl)c1)c1c[nH]c2ccccc2c1=O [Compound 367, N-[2-(3,5-dichlorophenyl)phenyl]-4-oxo-1H-quinoline-3-carboxamide] | 25 to 100
44 | CCCOc1ccc(NC(=O)c2c[nH]c3ccccc3c2=O)cc1N [Compound 368, N-(3-amino-4-propoxy-phenyl)-4-oxo-1H-quinoline-3-carboxamide] | 25 to 100
45 | N#Cc1cc(Cl)cc(Cl)c1NC(=O)c1c[nH]c2ccccc2c1=O [Compound 369, N-(2,4-dichloro-6-cyano-phenyl)-4-oxo-1H-quinoline-3-carboxamide] | < 25
46 | O=C(Nc1cccc(Cl)c1)c1c[nH]c2ccccc2c1=O [Compound 370, N-(3-chlorophenyl)-4-oxo-1H-quinoline-3-carboxamide] | 25 to 100
47 | O=C(Nc1ccccc1SC(F)(F)F)c1c[nH]c2ccccc2c1=O [Compound 371, 4-oxo-N-[2-(trifluoromethylsulfanyl)phenyl]-1H-quinoline-3-carboxamide] | 25 to 100
